Assay results published in patent publication US4710505A, “Asymmetric heterocyclic ester derivatives of 1,4-dihydropyridine-3,5-dicarboxylic acids” (Societe de Recherches Industrielles (S.O.R.I.), priority 1985, dated 1987).
Where two headings read alike, the source gives them in different places.

What was measured:
[1] = test system: spontaneously hypertensive rats; experiment: Antihypertensive activity in spontaneously hypertensive rats, oral administration; format: in vivo; conditions: for change in vivo at 30 mg/kg / change in vivo at 10 mg/kg: Rattus norvegicus
Procedure: Spontaneously hypertensive rats aged between 16 and 20 weeks are used. The systolic pressure is measured by plethysmography and the heart rate is obtained from the pressure graph. The compounds studied are administered orally.

[2] = test system: spontaneously hypertensive rats; experiment: Antihypertensive activity in spontaneously hypertensive rats, intravenous administration; format: in vivo; conditions: single i.v. dose; Ex. 2 30, Ex. 7 100, Ex. 8 300, Ex. 11 30 and 100 μg/kg; versus nicardipine and nifedipine
From the text: 2. Intravenous administration
Spontaneously hypertensive rats aged between 16 and 20 weeks are used. They are anesthetized with diethyl ether, a cannula is inserted into the caudal artery to measure the arterial pressure and a catheter is inserted into the right jugular vein to administer the compounds as described previously (L. S. Watson and L. T. Ludden, New Antihypertensive Drugs, pages 87-96, Spectrum Publication, Inc., 1976).
Each curve C relates to the control group receiving only the vehicle and each curve T relates to the treated group [n (number of animals per group)=4-7]. The said groups are compared either by analysis of variance, if the variances are homogenous (Bartlett's homocedasticity test), or by Kruskall-Wallis's non-parametric test (the statistically significant results being represented as follows:
FIGS. 1-6 relate to the variation in systolic pressure, expressed in mm Hg (1 mm Hg corresponds approximately to 1.333×10^2 Pa), as a function of time, expressed in minutes, and FIGS. 1a-6a relate to the variation in diastolic pressure, also expressed in mm Hg, as a function of time, expressed in minutes, for the treated groups (curves T) compared with the corresponding control groups (curves C), the doses of products administered being as follows:
FIGS. 2 and 2a: nicardipine at 30 μg/kg i.v.,
FIGS. 3 and 3a: Example 2 at 30 μg/kg i.v.,
FIGS. 4 and 4a: Example 7 at 100 μg/kg i.v.,
FIGS. 5 and 5a: Example 8 at 300 μg/kg i.v., and
FIGS. 6 and 6a: Example 11 at 30 and 100 μg/kg i.v. (curves T1 and T2).

in vivo = conditions: rat, intravenous, male Wistar rats weighing 300 g
Procedure: The LD50 was determined by intravenous administration to male Wistar rats weighing 300 g.

rabbit aorta = experiment: Relaxing effect on isolated rabbit aorta contracted (depolarized) by KCl; conditions: Oryctolagus cuniculus, read-out: ED50 (dose causing a 50% relaxation of the precontracted arteries)
Procedure: I. RELAXING EFFECT ON ISOLATED RABBIT AORTA CONTRACTED BY KCl
The thoracic aortae of male rabbits are removed, cut into narrow strips and placed under tension in an oxygenated survival medium. The contractions of these arteries, the amplitude of which is measured using a myograph, are induced by a 127 mM solution of KCl [R. Towart et al., Arzneim.-Forsch./Drug Res. 32, 338-346 (1982)]. The compounds studied are dissolved in a mixture of anhydrous ethanol and double distilled water (1:1) v/v, the percentage of ethanol in the baths being less than or equal to 0.3% at the end of the experiment. When the contraction plateau is reached, the compound is added to the medium in increasing doses every 15 minutes.

anesthetized dogs = experiment: Hemodynamic effects on anesthetized dogs, intraduodenal administration; format: in vivo, Mongrel dogs; conditions: for % variation T.P.R. (total peripheral resistances) / duration of the effect, T.P.R. (total peripheral resistances): calculated
Procedure: III. HEMODYNAMIC EFFECTS ON ANESTHETIZED DOGS Mongrel dogs are anesthetized with pentobarbital sodium (25 mg/kg i.v.). Each animal is placed under artificial respiration and a catheter is introduced into the aorta to measure the arterial pressure. The outputs of the aorta (O. Aor.), right femoral artery (O. Fem.) and left coronary artery (descending part) (O. Cor.) are measured continuously by means of electromagnetic rings. The total peripheral resistances (T.P.R.) are also calculated. […]

[3] = 30 mg/kg, read-out: % variation Heart rate
[4] = 30 mg/kg, read-out: % variation Systolic pressure
[5] = rabbit aorta depolarized by 127 mM KCl
[6] = 0.5 mg/kg, versus nicardipine and nifedipine

| Structure (SMILES) | duration of the effect, Systolic pressure ([1]; 30 mg/kg) | change in vivo at 30 mg/kg [1, 3] | change in vivo at 30 mg/kg [1, 4] | LD50 (in vivo) | EC50 (rabbit aorta; [5]) | further results |
| --- | --- | --- | --- | --- | --- | --- |
| COC(=O)C1=C(C)NC(C)=C(C(=O)OCC2COC(C)(c3ccccc3)O2)C1c1cccc([N+](=O)[O-])c1 (racemic) [Example 7] | > 24 h | 36.4% | -40.5 ± 5.1% | 17.8 mg/kg |  | duration of the antihypertensive effect (in words) [2]: notably longer than that of nicardipine and nifedipine |
| COC(=O)C1=C(C)NC(C)=C(C(=O)OCCN(C)Cc2ccccc2)C1c1cccc([N+](=O)[O-])c1 (centres unmarked) [nicardipine, methyl 2-(N-methyl-N-benzylamino)ethyl 1,4-dihydro-2,6-dimethyl-4-(3-nitrophenyl)pyridine-3,5-dicarboxylate, reference compound] |  | 21.3% | -46.2 ± 6.8% | 11.8 mg/kg | 0.026 µM | % variation D.P. (diastolic pressure) (anesthetized dogs; 0.5 mg/kg): -34.5%; % variation O. Aor. (output of the aorta) (anesthetized dogs; 0.5 mg/kg): +25%; % variation O. Cor. (output of left coronary artery) (anesthetized dogs; 0.5 mg/kg): +62.2%; % variation O. Fem. (output of right femoral artery) (anesthetized dogs; 0.5 mg/kg): +70.6%; duration of the effect, D.P. (diastolic pressure) (anesthetized dogs; 0.5 mg/kg): 150 min; % variation T.P.R. (total peripheral resistances) (anesthetized dogs; 0.5 mg/kg): -40.5%; duration of the effect, T.P.R. (total peripheral resistances) (anesthetized dogs; 0.5 mg/kg): 90 min |
| COC(=O)C1=C(C)NC(C)=C(C(=O)OCC2CSC(C)(C)O2)C1c1cccc([N+](=O)[O-])c1 (racemic) [Example 6] |  | 21.4% | -35.1 ± 9.2% | 34.2 mg/kg | 0.035 µM |  |
| COC(=O)C1=C(C)NC(C)=C(C(=O)OCC2COCO2)C1c1cccc([N+](=O)[O-])c1 (racemic) [Example 3] |  |  |  |  | 0.043 µM |  |
| COC(=O)C1=C(C)NC(C)=C(C(=O)OCC2COC(C(F)(F)F)(C(F)(F)F)O2)C1c1cccc([N+](=O)[O-])c1 (centres unmarked) [Example 13] | > 24 h | 25% |  |  | > 5 µM |  |
| COC(=O)C1=C(C)NC(C)=C(C(=O)OCC2COC(c3ccccc3)(C(F)(F)F)O2)C1c1cccc([N+](=O)[O-])c1 (centres unmarked) [Example 12] |  |  |  |  | 5 µM | duration of the effect, Systolic pressure ([1]; 10 mg/kg): > 24 h; change in vivo at 10 mg/kg ([1]; 10 mg/kg, read-out: % variation Heart rate): 31.2%; change in vivo at 10 mg/kg ([1]; 10 mg/kg, read-out: % variation Systolic pressure): -41.4 ± 10% |
| COC(=O)C1=C(C)NC(C)=C(C(=O)OCC2COC(c3ccccc3)(c3ccccc3)O2)C1c1cccc([N+](=O)[O-])c1 (racemic) [Example 8] | > 24 h | 12.4% | -37 ± 9% | 44.4 mg/kg | > 5 µM | duration of the antihypertensive effect (in words) [2]: notably longer than that of nicardipine and nifedipine |
| COC(=O)C1=C(C)NC(C)=C(C(=O)OCC2COC(c3ccccc3)O2)C1c1cccc([N+](=O)[O-])c1 (centres unmarked) [Example 14] | > 24 h | 19.9% | -58.4 ± 32.9% |  | > 5 µM | duration of the effect, Heart rate ([1]; 30 mg/kg): > 24 h |
| COC(=O)C1=C(C)NC(C)=C(C(=O)OCC2COC(C)(C)O2)C1c1cccc([N+](=O)[O-])c1 (centres unmarked) [Example 1, methyl (2,2-dimethyl-1,3-dioxolan-4-yl)methyl 1,4-dihydro-2,6-dimethyl-4-(3-nitrophenyl)pyridine-3,5-dicarboxylate] |  | 16.4% | -28.4 ± 7.3% | 22.5 mg/kg | 0.031 µM | % variation D.P. (diastolic pressure) (anesthetized dogs; 0.5 mg/kg): -42.6%; % variation O. Aor. (output of the aorta) (anesthetized dogs; 0.5 mg/kg): +124%; % variation O. Cor. (output of left coronary artery) (anesthetized dogs; 0.5 mg/kg): +73.6%; % variation O. Fem. (output of right femoral artery) (anesthetized dogs; 0.5 mg/kg): +114%; duration of the effect, D.P. (diastolic pressure) (anesthetized dogs; 0.5 mg/kg): 120 min; duration of the effect, O. Aor. (output of the aorta) (anesthetized dogs; 0.5 mg/kg): 120 min; duration of the effect, O. Fem. (output of right femoral artery) (anesthetized dogs; 0.5 mg/kg): 270 min; % variation T.P.R. (total peripheral resistances) (anesthetized dogs; 0.5 mg/kg): -65%; duration of the effect, T.P.R. (total peripheral resistances) (anesthetized dogs; 0.5 mg/kg): 300 min; cardiac, femoral and coronary outputs (in words) (anesthetized dogs; [6]): increased for a longer time and to a greater extent; drop in total peripheral resistances (in words) (anesthetized dogs; [6]): greater drop in total peripheral resistances than nicardipine and nifedipine; duration of drop in total peripheral resistances (in words) (anesthetized dogs; [6]): considerably longer |
| COC(=O)C1=C(C)NC(C)=C(C(=O)OCCC2COC(C)(C)O2)C1c1cccc([N+](=O)[O-])c1 (racemic) [Example 4, methyl 2-[(2,2-dimethyl-1,3-dioxolan-4-yl)ethyl]1,4-dihydro-2,6-dimethyl-4-(3-nitrophenyl)pyridine-3,5-dicarboxylate] |  |  |  |  | 0.032 µM |  |
| COC(=O)C1=C(C)NC(C)=C(C(=O)OCC2COC3(CCCC3)O2)C1c1cccc([N+](=O)[O-])c1 (centres unmarked) [Example 5, methyl (1,4-dioxaspiro[4,4]nonan-2-yl)methyl 1,4-dihydro-2,6-dimethyl-4-(3-nitrophenyl)pyridine-3,5-dicarboxylate] |  | 19.3% | -40.4 ± 9.4% |  |  | duration of the effect, Heart rate ([1]; 30 mg/kg): 4 h |
| COC(=O)C1=C(C)NC(C)=C(C(=O)OC)C1c1ccccc1[N+](=O)[O-] [nifedipine, dimethyl 1,4-dihydro-2,6-dimethyl-4-(2-nitrophenyl)pyridine-3,5-dicarboxylate, reference compound] |  | 35.4% | -35.2 ± 4.7% |  |  | EC50 (rabbit aorta): 0.022 µM; % variation D.P. (diastolic pressure) (anesthetized dogs; 0.35 mg/kg): -44.2%; % variation O. Aor. (output of the aorta) (anesthetized dogs; 0.35 mg/kg): +20.5%; % variation O. Cor. (output of left coronary artery) (anesthetized dogs; 0.35 mg/kg): +66.4%; % variation O. Fem. (output of right femoral artery) (anesthetized dogs; 0.35 mg/kg): +76.4%; duration of the effect, D.P. (diastolic pressure) (anesthetized dogs; 0.35 mg/kg): 240 min; duration of the effect, O. Fem. (output of right femoral artery) (anesthetized dogs; 0.35 mg/kg): 10 min; % variation T.P.R. (total peripheral resistances) (anesthetized dogs; 0.35 mg/kg): -48.6%; duration of the effect, T.P.R. (total peripheral resistances) (anesthetized dogs; 0.35 mg/kg): 180 min |
| COC(=O)C1=C(C)NC(C)=C(C(=O)OCC2COC(C)(c3ccc(Cl)cc3Cl)O2)C1c1cccc([N+](=O)[O-])c1 (racemic) [Example 11] | > 24 h | 34% | -54 ± 5.9% | 38.9 mg/kg | > 5 µM | duration of the antihypertensive effect (in words) [2]: notably longer than that of nicardipine and nifedipine |
| COC(=O)C1=C(C)NC(C)=C(C(=O)OCC2(C)OCCO2)C1c1cccc([N+](=O)[O-])c1 (centres unmarked) [CP 1, methyl 2,2ethylenedioxypropyl 2,6dimethyl-4-(3-nitrophenyl)-1,4-dihydropyridine-3,5-dicarboxylate, reference compound] | 0 h | 0% | -11.6 ± 6% |  | 0.25 µM |  |
